Measured values reported in patent US20220073554A1, “LINCOSAMIDE ANTIBIOTICS AND USES THEREOF” (President and Fellows of Harvard College, priority 2017, published 2022).
Converted amounts (≈) assume the structure as drawn. Like-named read-outs stand apart in the source and are kept apart here.

Key:
Type in all cases: cell-based
S. pneumoniae ATCC 49619 = test: MIC against S. pneumoniae ATCC 49619; settings: Streptococcus pneumoniae, ATCC49619; S. pneumoniae ATCC 49619; read-out: MIC
S. pyogenes ATCC 19615 = test: MIC against S. pyogenes ATCC 19615; settings: Streptococcus pyogenes, ATCC19615; S. pyogenes ATCC 19615; read-out: MIC
E. faecalis ATCC 29212 = test: MIC against E. faecalis ATCC 29212; settings: Enterococcus faecalis
E. coli ATCC 15922 = test: MIC against E. coli ATCC 15922; settings: Escherichia coli, ATCC15922; E. coli ATCC 15922; read-out: MIC
S. aureus ATCC 29213 = test: MIC against S. aureus ATCC 29213; settings: Staphylococcus aureus
E. coli ATCC 25922 = test: MIC against E. coli ATCC 25922; settings: Escherichia coli, ATCC25922
[1] = system: S. aureus MP-549 msr(a) USA 300; test: MIC against S. aureus MP-549 msr(a) USA 300; settings: Staphylococcus aureus, USA300, S. aureus MP-549 msr(a) USA 300
K. pneumoniae ATCC 10031 = test: MIC against K. pneumoniae ATCC 10031; settings: Klebsiella pneumoniae, ATCC10031
E. coli MP-9 ΔTolC = test: MIC against E. coli MP-9 ΔTolC; settings: Escherichia coli
[2] = system: E. coli MP-74 LptD mutant; test: MIC against E. coli MP-74 LptD mutant; settings: Escherichia coli
H. influenzae ATCC 49247 = test: MIC against H. influenzae ATCC 49247; settings: Haemophilus influenzae, ATCC49247
[3] = ATCC29213, S. aureus ATCC 29213, read-out: MIC
[4] = E. coli ATCC 25922, read-out: MIC

| MIC (E. coli ATCC 15922) [mg/L] | SMILES | MIC (S. pneumoniae ATCC 49619) [mg/L] | MIC (S. pyogenes ATCC 19615) [mg/L] | MIC (E. faecalis ATCC 29212; ATCC29212, read-out: MIC) [mg/L] | MIC (S. aureus ATCC 29213; [3]) [mg/L] | MIC (E. coli ATCC 25922; [4]) [mg/L] | MIC [1] [mg/L] | MIC (K. pneumoniae ATCC 10031) [mg/L] | MIC (E. coli MP-9 ΔTolC) [mg/L] | MIC [2] [mg/L] | MIC (H. influenzae ATCC 49247) [mg/L] | MIC (E. coli ATCC 25922) [mg/L] | MIC (E. faecalis ATCC 29212; ATCC29212) [mg/L] | MIC (S. aureus ATCC 29213; ATCC29213) [mg/L] | MIC (K. pneumoniae ATCC 10031; K. pneumoniae ATCC 10031, read-out: MIC) [mg/L] |
| --- | --- | --- | --- | --- | --- | --- | --- | --- | --- | --- | --- | --- | --- | --- | --- |
| > 64 | CSC1O[C@H]([C@H](NC(=O)[C@@H]2[C@@H]3OCC=CC[C@H]3CN2C2CC2)[C@H](C)Sc2ccc(-c3cccnc3)cc2)C(O)[C@@H](O)[C@H]1O (stereo partly shown) [FSA-214009a] | 4 (≈ 6.37 µM) | 4 (≈ 6.37 µM) | > 64 | – | – | – | – | – | – | – | – | – | – | – |
| – | CCOC(=O)CCN1C[C@@H]2CC=CCO[C@H]2[C@H]1C(=O)N[C@H]([C@H](C)Sc1ccc(-c2cccnc2)cc1)[C@H]1OC(SC)[C@H](O)[C@H](O)C1O (stereo partly shown) [FSA-214009b] | – | 8 (≈ 11.6 µM) | > 64 | ≥ 64 | > 64 | – | – | – | – | – | – | – | – | – |
| – | CSC1O[C@H]([C@H](NC(=O)[C@H]2NC[C@@H]3CC=CCO[C@@H]32)[C@H](C)Cl)C(O)[C@@H](O)[C@H]1O (stereo partly shown) [FSA-504059] | – | – | – | 2 (≈ 4.58 µM) | – | 2 (≈ 4.58 µM) | > 64 | > 64 | > 64 | > 64 | > 64 | – | – | – |
| – | CSC1O[C@H]([C@H](NC(=O)[C@H]2NC[C@@H]3CCCCO[C@@H]32)[C@H](C)Cl)C(O)[C@@H](O)[C@H]1O (stereo partly shown) [FSA-504062] | – | – | – | 2 (≈ 4.56 µM) | – | 1 (≈ 2.28 µM) | > 64 | > 64 | > 64 | > 64 | > 64 | – | – | – |
| – | CSC1O[C@H]([C@H](NC(=O)[C@H]2NC[C@@H]3C=C(C#Cc4ccccc4)CCO[C@@H]23)[C@H](C)Cl)C(O)[C@@H](O)[C@H]1O (stereo partly shown) [FSA-510002] | – | – | 2 (≈ 3.72 µM) | 0.5 (≈ 0.931 µM) | – | – | – | > 64 | – | – | > 64 | – | – | – |
| – | CSC1O[C@H]([C@H](NC(=O)[C@H]2NC[C@@H]3C=C(C#Cc4cccc(F)c4)CCO[C@@H]23)[C@H](C)Cl)C(O)[C@@H](O)[C@H]1O (stereo partly shown) [FSA-510003] | – | – | 1 (≈ 1.8 µM) | 0.5 (≈ 0.901 µM) | – | – | – | > 64 | – | – | > 64 | – | – | – |
| – | CSC1O[C@H]([C@H](NC(=O)[C@H]2NC[C@@H]3CC(c4cccc5cnccc45)=CCO[C@H]32)[C@H](C)Cl)C(O)[C@@H](O)[C@H]1O (stereo partly shown) [FSA-510006] | 1 (≈ 1.77 µM) | 0.5 (≈ 0.886 µM) | – | 8 (≈ 14.2 µM) | – | – | > 64 | > 64 | – | > 64 | > 64 | – | – | – |
| – | CSC1O[C@H]([C@H](NC(=O)[C@H]2NC[C@@H]3CC(NC4CC4)CCO[C@H]32)[C@H](C)Cl)C(O)[C@@H](O)[C@H]1O (stereo partly shown) [FSA-510011] | 8 (≈ 16.2 µM) | 2 (≈ 4.05 µM) | – | – | – | – | > 64 | > 64 | > 64 | > 64 | > 64 | > 64 | – | – |
| – | CSC1O[C@H]([C@H](NC(=O)[C@H]2NC[C@@H]3CC(NCc4ccccc4F)CCO[C@H]32)[C@H](C)Cl)C(O)[C@@H](O)[C@H]1O (stereo partly shown) [FSA-510072] | 32 (≈ 56.9 µM) | 8 (≈ 14.2 µM) | – | – | – | – | > 64 | > 64 | > 64 | > 64 | > 64 | > 64 | – | – |
| – | CSC1O[C@H]([C@H](NC(=O)[C@H]2NC[C@@H]3CC(NCc4cccc(F)c4)CCO[C@H]32)[C@H](C)Cl)C(O)[C@@H](O)[C@H]1O (stereo partly shown) [FSA-510073] | 8 (≈ 14.2 µM) | 2 (≈ 3.56 µM) | – | – | – | – | > 64 | > 64 | > 64 | > 64 | > 64 | > 64 | – | – |
| – | CSC1O[C@H]([C@H](NC(=O)[C@H]2NC[C@@H]3CC(NCc4ccc(F)cc4)CCO[C@H]32)[C@H](C)Cl)C(O)[C@@H](O)[C@H]1O (stereo partly shown) [FSA-510074] | – | 8 (≈ 14.2 µM) | – | – | – | – | > 64 | – | > 64 | > 64 | > 64 | > 64 | – | – |
| – | CSC1O[C@H]([C@H](NC(=O)[C@H]2NC[C@@H]3CC(c4ccc(C)cc4)=CCO[C@H]32)[C@H](C)Cl)C(O)[C@@H](O)[C@H]1O (stereo partly shown) [FSA-511019] | – | 0.195 (≈ 0.37 µM) | 4 (≈ 7.59 µM) | – | > 64 | 0.5 (≈ 0.949 µM) | – | – | – | – | – | – | 0.5 (≈ 0.949 µM) | > 64 |
